Source: PubChem BioAssay (NCI)
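1) Cells in 96-well plates. 2) Compound, 48 h, 5 concentrations. 3) Linear interpolation between surrounding doses. 4) Unreached endpoint = highest concentration. At the TGI there is no net growth.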

Tests used:
Test in all cases: NCI tumour cell line growth inhibition, 48 h
[1] = system: 786-0 renal
[2] = system: A498 renal
[3] = system: A549 NSCLC
[4] = system: ACHN renal
[5] = system: CAKI-1 renal
[6] = system: CCRF-CEM leukemia
[7] = system: COLO 205 colon
[8] = system: DLD-1 colon
[9] = system: DMS 114 small cell lung
[10] = system: DMS 273 small cell lung
[11] = system: EKVX NSCLC
[12] = system: HCC-2998 colon
[13] = system: HCT-116 colon
[14] = system: HCT-15 colon
[15] = system: HL-60(TB) leukemia
[16] = system: HOP-62 NSCLC
[17] = system: HT29 colon
[18] = system: IGROV1 ovarian
[19] = system: K-562 leukemia
[20] = system: KM12 colon
[21] = system: KM20L2 colon
[22] = system: LOX IMVI melanoma
[23] = system: LXFL 529 NSCLC
[24] = system: M14 melanoma
[25] = system: MOLT-4 leukemia
[26] = system: NCI-H226 lung
[27] = system: NCI-H23 lung
[28] = system: NCI-H460 lung
[29] = system: NCI-H522 lung
[30] = system: OVCAR-3 ovarian
[31] = system: OVCAR-4 ovarian
[32] = system: OVCAR-5 ovarian
[33] = system: OVCAR-8 ovarian
[34] = system: RPMI-8226 leukemia
[35] = system: RXF 393 renal
[36] = system: SF-268 CNS
[37] = system: SF-295 CNS
[38] = system: SF-539 CNS
[39] = system: SK-MEL-2 melanoma
[40] = system: SK-MEL-28 melanoma
[41] = system: SN12C renal
[42] = system: SNB-19 CNS
[43] = system: SNB-78 CNS
[44] = system: SR leukemia
[45] = system: SW-620 colon
[46] = system: TK-10 renal
[47] = system: U251 CNS
[48] = system: UACC-257 melanoma
[49] = system: UO-31 renal
[50] = system: HOP-18 NSCLC
[51] = system: HOP-92 NSCLC
[52] = system: M19-MEL melanoma
[53] = system: MALME-3M melanoma
[54] = system: SK-MEL-5 melanoma
[55] = system: SNB-75 CNS
[56] = system: UACC-62 melanoma
[57] = system: XF 498 CNS
[58] = system: SK-OV-3 ovarian

Cc1ccc(NC(=O)SCCC(=O)O)cc1NC(=O)SCCC(=O)O
TGI [1]: > 100 µM
TGI [2]: > 100 µM
TGI [3]: > 100 µM
TGI [4]: > 100 µM
TGI [5]: > 100 µM
TGI [6]: > 100 µM
TGI [7]: > 10 µM
TGI [8]: > 10 µM
TGI [9]: > 100 µM
TGI [10]: > 10 µM
TGI [11]: > 100 µM
TGI [12]: > 100 µM
TGI [13]: > 100 µM
TGI [14]: > 100 µM
TGI [15]: > 100 µM
TGI [16]: > 100 µM
TGI [17]: > 100 µM
TGI [18]: > 100 µM
TGI [19]: > 100 µM
TGI [20]: > 100 µM
TGI [21]: > 100 µM
TGI [22]: > 100 µM
TGI [23]: > 100 µM
TGI [24]: > 100 µM
TGI [25]: > 100 µM
TGI [26]: > 100 µM
TGI [27]: > 100 µM
TGI [28]: > 100 µM
TGI [29]: > 100 µM
TGI [30]: > 100 µM
TGI [31]: > 100 µM
TGI [32]: > 100 µM
TGI [33]: > 100 µM
TGI [34]: > 100 µM
TGI [35]: > 100 µM
TGI [36]: > 100 µM
TGI [37]: > 100 µM
TGI [38]: > 100 µM
TGI [39]: > 100 µM
TGI [40]: > 100 µM
TGI [41]: > 100 µM
TGI [42]: > 100 µM
TGI [43]: > 100 µM
TGI [44]: > 100 µM
TGI [45]: > 100 µM
TGI [46]: > 100 µM
TGI [47]: > 100 µM
TGI [48]: > 100 µM
TGI [49]: > 100 µM

CN(C)CC1(C)CC/C(=C\c2ccc3c(c2)OCO3)C1=O (stereo unspecified)
TGI [1]: > 100 µM
TGI [2]: > 100 µM
TGI [3]: > 100 µM
TGI [4]: > 100 µM
TGI [5]: > 100 µM
TGI [6]: > 100 µM
TGI [7]: > 100 µM
TGI [8]: > 100 µM
TGI [9]: > 100 µM
TGI [10]: > 100 µM
TGI [12]: > 100 µM
TGI [13]: > 100 µM
TGI [14]: > 100 µM
TGI [50]: > 100 µM
TGI [16]: > 100 µM
TGI [51]: > 100 µM
TGI [17]: > 100 µM
TGI [18]: > 100 µM
TGI [19]: > 100 µM
TGI [20]: > 100 µM
TGI [21]: > 100 µM
TGI [22]: > 100 µM
TGI [23]: > 100 µM
TGI [24]: > 100 µM
TGI [52]: > 100 µM
TGI [53]: > 100 µM
TGI [25]: > 100 µM
TGI [26]: > 100 µM
TGI [27]: > 100 µM
TGI [28]: > 100 µM
TGI [29]: > 100 µM
TGI [30]: > 100 µM
TGI [31]: > 100 µM
TGI [32]: > 100 µM
TGI [33]: > 100 µM
TGI [34]: 81.4 µM
TGI [35]: > 100 µM
TGI [36]: > 100 µM
TGI [37]: > 100 µM
TGI [38]: > 100 µM
TGI [39]: > 100 µM
TGI [40]: > 100 µM
TGI [54]: > 100 µM
TGI [41]: > 100 µM
TGI [42]: > 100 µM
TGI [55]: > 100 µM
TGI [43]: > 100 µM
TGI [44]: > 100 µM
TGI [45]: > 100 µM
TGI [46]: > 100 µM
TGI [47]: > 100 µM
TGI [48]: > 100 µM
TGI [56]: > 100 µM
TGI [49]: > 100 µM
TGI [57]: > 100 µM

CCC12C=CCN3CC[C@]4(C(=C(C(=O)OC)[C@@H]1Nc1ccn(C5OC(COC(C)=O)C(OC(C)=O)C5OC(C)=O)c(=O)n1)Nc1ccccc14)C32 (stereo partly specified)
TGI [1]: 8.9 µM
TGI [2]: 10.7 µM
TGI [3]: 15.1 µM
TGI [4]: 8 µM
TGI [5]: 15.8 µM
TGI [6]: 13.2 µM
TGI [7]: 8.11 µM
TGI [8]: 9.14 µM
TGI [10]: 8.54 µM
TGI [11]: 14.3 µM
TGI [12]: 7.73 µM
TGI [13]: 7.37 µM
TGI [14]: 6.83 µM
TGI [15]: 12.6 µM
TGI [50]: 14.1 µM
TGI [16]: 8.83 µM
TGI [51]: 8.02 µM
TGI [17]: 8.4 µM
TGI [18]: 9.68 µM
TGI [19]: 17.1 µM
TGI [20]: 2.54 µM
TGI [21]: 8.19 µM
TGI [22]: 7.81 µM
TGI [23]: 8.94 µM
TGI [24]: 8.51 µM
TGI [52]: 7.45 µM
TGI [53]: 9.74 µM
TGI [25]: 23.5 µM
TGI [26]: 8.25 µM
TGI [27]: 3.43 µM
TGI [28]: 8.62 µM
TGI [29]: 7.17 µM
TGI [30]: 7.8 µM
TGI [31]: 3.57 µM
TGI [32]: 3.6 µM
TGI [33]: 11 µM
TGI [34]: 14.7 µM
TGI [35]: 6.45 µM
TGI [36]: 10.9 µM
TGI [37]: 10.2 µM
TGI [38]: 9.17 µM
TGI [39]: 5.58 µM
TGI [40]: 8.43 µM
TGI [54]: 8.1 µM
TGI [58]: 9.45 µM
TGI [41]: 8.24 µM
TGI [42]: 9.27 µM
TGI [55]: 7.63 µM
TGI [43]: 13.8 µM
TGI [44]: 10.2 µM
TGI [45]: 9.41 µM
TGI [46]: 10.1 µM
TGI [47]: 7.69 µM
TGI [48]: 3.62 µM
TGI [56]: 6.94 µM
TGI [49]: 7.64 µM
TGI [57]: 9.63 µM
